Series [1] addresses 5-hydroxytryptamine receptor 2A (Rattus norvegicus, UniProt P14842). The series can be described thus: Displacement of [3H]ketanserine from 5-HT2A receptor in rat cerebral cortex homogenates after 60 mins by liquid scintillation counting. It counts as tissue-based. A general note: In a radioligand displacement assay an active substance lowers the binding of a labelled ligand.

Series [2] addresses T1, Adrenergic receptor alpha-2 (Rattus norvegicus, UniProt P22086+P19328+P22909).
T1 sequence (P22086 whole entry): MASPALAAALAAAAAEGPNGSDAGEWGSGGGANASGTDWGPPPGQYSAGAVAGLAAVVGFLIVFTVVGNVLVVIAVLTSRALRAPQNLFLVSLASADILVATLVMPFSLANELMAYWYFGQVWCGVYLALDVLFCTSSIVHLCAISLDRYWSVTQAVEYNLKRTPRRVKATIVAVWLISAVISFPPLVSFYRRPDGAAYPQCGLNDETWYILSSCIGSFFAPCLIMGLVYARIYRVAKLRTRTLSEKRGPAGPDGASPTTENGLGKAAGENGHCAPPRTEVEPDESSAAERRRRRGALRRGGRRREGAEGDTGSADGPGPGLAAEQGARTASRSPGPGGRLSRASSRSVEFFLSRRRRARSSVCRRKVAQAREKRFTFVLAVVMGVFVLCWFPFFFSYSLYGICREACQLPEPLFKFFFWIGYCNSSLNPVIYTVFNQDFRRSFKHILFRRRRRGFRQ
T1 sequence (P19328 whole entry): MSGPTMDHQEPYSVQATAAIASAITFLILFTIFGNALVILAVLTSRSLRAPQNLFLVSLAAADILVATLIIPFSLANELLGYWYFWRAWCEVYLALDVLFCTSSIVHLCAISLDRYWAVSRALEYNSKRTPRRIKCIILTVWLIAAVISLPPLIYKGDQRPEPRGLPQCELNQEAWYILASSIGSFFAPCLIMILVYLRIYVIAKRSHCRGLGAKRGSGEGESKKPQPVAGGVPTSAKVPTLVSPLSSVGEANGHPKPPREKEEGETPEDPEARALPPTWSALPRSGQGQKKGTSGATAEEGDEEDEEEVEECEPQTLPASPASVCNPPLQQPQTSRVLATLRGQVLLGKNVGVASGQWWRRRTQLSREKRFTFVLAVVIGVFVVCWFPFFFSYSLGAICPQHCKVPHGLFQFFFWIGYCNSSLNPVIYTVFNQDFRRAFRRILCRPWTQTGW
T1 sequence (P22909 whole entry): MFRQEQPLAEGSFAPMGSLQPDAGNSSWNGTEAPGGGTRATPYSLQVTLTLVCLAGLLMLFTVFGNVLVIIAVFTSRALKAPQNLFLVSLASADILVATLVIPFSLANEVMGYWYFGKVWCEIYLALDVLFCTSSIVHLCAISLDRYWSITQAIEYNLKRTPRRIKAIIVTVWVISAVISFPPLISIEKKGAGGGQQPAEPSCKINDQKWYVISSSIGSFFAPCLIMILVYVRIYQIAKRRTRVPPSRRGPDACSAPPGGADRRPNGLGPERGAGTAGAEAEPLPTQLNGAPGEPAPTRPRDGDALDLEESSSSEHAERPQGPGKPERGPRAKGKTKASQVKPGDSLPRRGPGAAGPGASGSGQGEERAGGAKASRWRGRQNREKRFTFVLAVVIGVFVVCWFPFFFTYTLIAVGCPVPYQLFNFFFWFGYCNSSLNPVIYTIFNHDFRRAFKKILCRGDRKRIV
The series can be described thus: Displacement of [3H]-rauwolscine from adrenergic alpha2 receptor in rat cerebral cortex homogenates after 60 mins by liquid scintillation counting. The class given is tissue-based.

Series [3] has as its system Mus musculus. The series is described as follows: Neurotoxicity in Chinese Kun Ming mouse assessed as locomotor activity by measuring total distance traveled at 3 mg/kg, po administered 1 hr before test measured for 10 mins (reference value: 13263.8 +/- 8034.2 millimeter). The class given is toxicity, organism-based. Particulars: in vivo.
For series [4], the system named is Mus musculus. The series is described as follows: Neurotoxicity in Chinese Kun Ming mouse assessed as locomotor activity by measuring total distance traveled at 1 mg/kg, po administered 1 hr before test measured for 10 mins (reference value: 13263.8 +/- 8034.2 millimeter). Particulars: in vivo. It counts as toxicity, organism-based.
Series [5] relates to Mus musculus. The series is described as follows: Antipsychotic activity in Chinese Kun Ming mouse assessed as inhibition of apomorphine-induced climbing behaviour at 1 mg/kg, po administered 30 mins before apomorphine challenge measured up to 30 mins. The class given is functional, organism-based.
Series [6] in a line: Acute toxicity in Sprague-Dawley rat. It counts as organism-based. Particulars: in vivo.
Series [7] deals with Mus musculus. The series can be described thus: Neurotoxicity in Chinese Kun Ming mouse assessed as locomotor activity by measuring total distance traveled at 10 mg/kg, po administered 1 hr before test measured for 10 mins (reference value: 13263.8 +/- 8034.2 millimeter). It counts as toxicity, organism-based. The settings on record: in vivo.
The subject of series [8] is Mus musculus. The series is described as follows: Antipsychotic activity in po dosed Chinese Kun Ming mouse assessed as inhibition of DOI-induced head twitch administered 60 mins before DOI challenge measured up to 15 mins. It counts as functional.
For the next series, the target named is D(2) dopamine receptor (Rattus norvegicus, UniProt P61169). The series is described as follows: Displacement of [3H]spiperone from dopaminergic D2 receptor in rat striatum homogenates after 60 mins by liquid scintillation counting.
Series [9] concerns Mus musculus. The series can be described thus: Antipsychotic activity in Chinese Kun Ming mouse assessed as inhibition of apomorphine-induced reaching behaviour at 1 mg/kg, po administered 30 mins before apomorphine challenge measured up to 30 mins. It counts as functional, organism-based.
Series [10] has as its system Mus musculus. The series is described as follows: Antipsychotic activity in po dosed Chinese Kun Ming mouse assessed as inhibition of apomorphine-induced climbing administered 30 mins before apomorphine challenge measured up to 30 mins. It counts as functional.
The subject of series [11] is Mus musculus. The series can be described thus: Toxicity in po dosed Chinese Kun Ming mouse assessed as induction of catalepsy by measuring immobility score of 30 seconds administered 30 mins before first assessment. The class given is organism-based. The settings on record: in vivo, 0.5 h.
A further series deals with Histamine H1 receptor (Cavia porcellus, UniProt P31389). The series is described as follows: Displacement of [3H]mepyramine from histamine H1 receptor in guinea pig cerebellum homogenates after 60 mins by liquid scintillation counting.

The results in this text go back to ChEMBL document CHEMBL3632483, “Synthesis and pharmacological evaluation of piperidine (piperazine)-substituted benzoxazole derivatives as multi-target antipsychotics” (Bioorg Med Chem Lett, 2015).

Active and inactive are the calls of the source. No cut-off for these calls is given here. Some results are limits rather than exact numbers.

As a reminder, the Ki is a measure of affinity in units of concentration, obtained from inhibition or displacement. Higher therefore signals lower affinity. In general, LD50 refers to the dose expected to kill half of the subjects tested. A higher LD50 goes with a less toxic substance. One may read the ED50 as the dose that gives a 50% effect, or the effect in half of the subjects.

Chain of 5-hydroxytryptamine receptor 2A (P14842 whole entry): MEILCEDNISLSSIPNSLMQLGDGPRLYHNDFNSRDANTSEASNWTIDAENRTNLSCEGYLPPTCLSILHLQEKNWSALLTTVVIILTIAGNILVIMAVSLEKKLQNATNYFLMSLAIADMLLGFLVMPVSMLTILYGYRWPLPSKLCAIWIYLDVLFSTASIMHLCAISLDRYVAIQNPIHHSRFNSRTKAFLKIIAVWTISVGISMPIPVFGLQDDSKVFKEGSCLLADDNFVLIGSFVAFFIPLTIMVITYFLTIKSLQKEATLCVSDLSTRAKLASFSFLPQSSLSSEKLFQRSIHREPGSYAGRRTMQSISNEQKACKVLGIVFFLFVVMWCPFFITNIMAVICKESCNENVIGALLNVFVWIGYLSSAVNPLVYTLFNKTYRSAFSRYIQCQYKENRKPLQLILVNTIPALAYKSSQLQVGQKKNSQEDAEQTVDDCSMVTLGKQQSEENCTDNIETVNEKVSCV
Chain of D(2) dopamine receptor (P61169 whole entry): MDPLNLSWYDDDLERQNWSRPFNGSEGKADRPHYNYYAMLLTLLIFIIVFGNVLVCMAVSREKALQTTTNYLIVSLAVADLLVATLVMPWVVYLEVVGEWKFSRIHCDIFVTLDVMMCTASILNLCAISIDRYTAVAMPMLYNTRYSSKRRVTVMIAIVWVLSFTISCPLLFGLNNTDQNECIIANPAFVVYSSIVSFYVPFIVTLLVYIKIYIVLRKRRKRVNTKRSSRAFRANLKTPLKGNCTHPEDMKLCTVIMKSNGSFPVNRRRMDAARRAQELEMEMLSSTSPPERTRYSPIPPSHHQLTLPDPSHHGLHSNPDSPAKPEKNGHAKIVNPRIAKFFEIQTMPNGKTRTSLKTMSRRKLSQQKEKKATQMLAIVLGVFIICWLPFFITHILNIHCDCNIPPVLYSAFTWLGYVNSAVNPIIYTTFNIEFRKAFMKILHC
Chain of Histamine H1 receptor (P31389 whole entry): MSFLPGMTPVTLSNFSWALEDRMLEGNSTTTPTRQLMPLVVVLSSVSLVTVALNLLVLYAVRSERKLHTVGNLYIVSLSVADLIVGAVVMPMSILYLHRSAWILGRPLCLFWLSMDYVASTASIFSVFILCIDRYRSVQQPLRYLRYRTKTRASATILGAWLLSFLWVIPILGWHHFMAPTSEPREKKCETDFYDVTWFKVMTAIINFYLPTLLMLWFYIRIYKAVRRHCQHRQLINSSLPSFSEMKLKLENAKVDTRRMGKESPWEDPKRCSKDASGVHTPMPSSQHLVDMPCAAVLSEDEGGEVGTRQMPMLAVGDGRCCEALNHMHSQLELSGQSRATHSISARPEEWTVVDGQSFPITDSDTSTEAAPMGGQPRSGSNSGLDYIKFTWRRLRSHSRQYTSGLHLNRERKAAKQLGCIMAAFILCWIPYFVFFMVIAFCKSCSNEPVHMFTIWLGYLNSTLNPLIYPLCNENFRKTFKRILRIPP

Consider `Fc1ccc2c(C3CCN(CCCOc4ccc(Cc5nc6ccccc6o5)cc4)CC3)noc2c1`, for which the Ki came to 2.7 nM in series [1], 16.3 nM in [2], 10.6 nM at D(2) dopamine receptor and 3150 nM at Histamine H1 receptor. Besides, the Activity in the series with Mus musculus [3] is on record as 10447.5 mm; in the series on Mus musculus [4] it was 13046.7 mm; with Mus musculus [7], 9492.4 mm. In addition, the inhibition result in the series with Mus musculus [5] and with Mus musculus [9] was “Active” in each case. In series [6], this compound displayed an LD50 greater than 2000 mg/kg. Moreover, the ED50 in the series on Mus musculus [8] turned out to be 0.71 mg/kg; in the series on Mus musculus [10] it was 0.86 mg/kg; with Mus musculus [11] it was 70.5 mg/kg. Besides, in the series with Mus musculus [8], the inhibition entry was “Dose-dependent effect”.
`Fc1ccc2c(C3CCN(CCCOc4ccc(-c5nc6ccccc6o5)cc4)CC3)noc2c1`: the Ki in series [1] came out at 8.3 nM; in series [2], 153 nM; on D(2) dopamine receptor, 22.1 nM. Also, in series [6], the LD50 is greater than 2000 mg/kg.
